Laboratory results from US9604996B2 (Bayer Pharma Aktiengesellschaft, priority 2013, dated 2017).

Target: T1, human adenosine A2b receptor (Homo sapiens, UniProt P29275)
T1 construct: expressed in transfected cells; host or cells: CHO-K1 (Chinese Hamster Ovary) with CRE-luciferase reporter
T1 sequence (P29275 1-332): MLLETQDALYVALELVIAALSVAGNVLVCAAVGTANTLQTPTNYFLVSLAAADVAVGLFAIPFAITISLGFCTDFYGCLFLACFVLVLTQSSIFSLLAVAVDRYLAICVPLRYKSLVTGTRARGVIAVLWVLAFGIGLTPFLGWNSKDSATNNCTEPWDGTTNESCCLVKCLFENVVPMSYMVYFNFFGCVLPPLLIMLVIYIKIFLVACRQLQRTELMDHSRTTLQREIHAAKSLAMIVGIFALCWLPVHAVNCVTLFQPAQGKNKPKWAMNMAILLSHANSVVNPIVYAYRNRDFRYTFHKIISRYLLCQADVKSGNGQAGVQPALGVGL
Assay: Cellular reporter gene (CRE-luciferase) A2b receptor antagonist assay in recombinant CHO-K1 cells stimulated with NECA
Type: cell-based
Conditions: recombinant CHO-K1 cell line, co-incubation with EC50 concentration of NECA, 3 hours, in some cases means, rounded to two significant digits
In short: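 CHO-K1 cells expressing human A2b receptor with a CRE-driven firefly luciferase reporter, co-incubated with test compound and NECA at its same-day EC50 concentration. Luminescence read 3 hours after NECA addition.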

Structure (SMILES) | IC50
CC1(O)CCN(C(=O)c2cc3c(=O)n(CCc4ccccc4)c(=O)n(CCC(F)(F)F)c3s2)CC1 [Example 91, 6-[(4-Hydroxy-4-methylpiperidin-1-yl)carbonyl]-3-(2-phenylethyl)-1-(3,3,3-trifluoropropyl)thieno[2,3-d]pyrimidine-2,4(1H,3H)-dione] | 0.26 µM
O=C(c1cc2c(=O)n(CCc3ccccc3)c(=O)n(CCC(F)(F)F)c2s1)N1CCC(O)(CO)CC1 [Example 92, 6-{[4-Hydroxy-4-(hydroxymethyl)piperidin-1-yl]carbonyl}-3-(2-phenylethyl)-1-(3,3,3-trifluoropropyl)thieno[2,3-d]pyrimidine-2,4(1H,3H)-dione] | 0.37 µM
COCCn1c(=O)n(CC(F)(F)c2ccccc2)c(=O)c2c(C)c(C(=O)N3CCNC(=O)C3)sc21 [Example 94, 3-(2,2-Difluoro-2-phenylethyl)-1-(2-methoxyethyl)-5-methyl-6-[(3-oxopiperazin-1-yl)carbonyl]thieno[2,3-d]pyrimidine-2,4(1H,3H)-dione] | 0.49 µM
CCCn1c(=O)c2c(C)c(C(=O)N3CCNC(=O)C3)sc2n(CCOC(F)(F)F)c1=O [Example 96, 5-Methyl-6-[(3-oxopiperazin-1-yl)carbonyl]-3-propyl-1-[2-(trifluoromethoxy)ethyl]thieno[2,3-d]pyrimidine-2,4(1H,3H)-dione] | 0.065 µM
CCc1c(C(=O)N2CCNC(=O)C2)sc2c1c(=O)n(CC)c(=O)n2CCC(F)(F)F [Example 98, 3,5-Diethyl-6-[(3-oxopiperazin-1-yl)carbonyl]-1-(3,3,3-trifluoropropyl)thieno[2,3-d]pyrimidine-2,4(1H,3H)-dione] | 0.1 µM
Cc1c(C(=O)N2CCC(C)(O)CC2)sc2c1c(=O)n(CCc1ccccc1)c(=O)n2CCOC(F)(F)F [Example 109, 6-[(4-Hydroxy-4-methylpiperidin-1-yl)carbonyl]-5-methyl-3-(2-phenylethyl)-1-[2-(trifluoromethoxy)ethyl]thieno[2,3-d]pyrimidine-2,4(1H,3H)-dione] | 0.0039 µM
CCn1c(=O)c2c(C(F)F)c(C(=O)N3CCC(O)CC3)sc2n(CCOC(F)(F)F)c1=O [Example 123, 5-(Difluoromethyl)-3-ethyl-6-[(4-hydroxypiperidin-1-yl)carbonyl]-1-[2-(trifluoromethoxy)ethyl]thieno[2,3-d]pyrimidine-2,4(1H,3H)-dione] | 0.018 µM
CCn1c(=O)c2c(C(F)F)c(C(=O)N3CCC(C)(O)CC3)sc2n(CCC(F)(F)F)c1=O [Example 124, 5-(Difluoromethyl)-3-ethyl-6-[(4-hydroxy-4-methylpiperidin-1-yl)carbonyl]-1-(3,3,3-trifluoropropyl)thieno[2,3-d]pyrimidine-2,4(1H,3H)-dione] | 0.037 µM
CCn1c(=O)c2c(C(F)F)c(C(=O)N3CCC(C)(O)CC3)sc2n(CCOC(F)(F)F)c1=O [Example 127, 5-(Difluoromethyl)-3-ethyl-6-[(4-hydroxy-4-methylpiperidin-1-yl)carbonyl]-1-[2-(trifluoromethoxy)ethyl]thieno[2,3-d]pyrimidine-2,4(1H,3H)-dione] | 0.0095 µM
CCc1c(C(=O)N2CCC(O)(CC)CC2)sc2c1c(=O)n(CC)c(=O)n2CCC(F)(F)F [Example 128, 3,5-Diethyl-6-[(4-ethyl-4-hydroxypiperidin-1-yl)carbonyl]-1-(3,3,3-trifluoropropyl)thieno[2,3-d]pyrimidine-2,4(1H,3H)-dione] | 0.013 µM
Cc1c(C(=O)N2CCNC(=O)C2)sc2c1c(=O)n(CCc1ccccc1)c(=O)n2CCOC(F)(F)F [Example 129, 5-Methyl-6-[(3-oxopiperazin-1-yl)carbonyl]-3-(2-phenylethyl)-1-[2-(trifluoromethoxy)ethyl]thieno[2,3-d]pyrimidine-2,4(1H,3H)-dione] | 0.012 µM
CCn1c(=O)c2c(C)c(C(=O)N3CCC(O)CC3)sc2n(CCCC(F)(F)F)c1=O [Example 135, 3-Ethyl-6-[(4-hydroxypiperidin-1-yl)carbonyl]-5-methyl-1-(4,4,4-trifluorobutyl)thieno[2,3-d]pyrimidine-2,4(1H,3H)-dione] | 0.094 µM

The remaining lines, values ahead:

IC50 | Structure (SMILES)
0.036 µM | Cc1c(C(=O)N2CCNC(=O)C2)sc2c1c(=O)n(CC(F)(F)c1ccccc1)c(=O)n2CCC(F)(F)F [Example 93, 3-(2,2-Difluoro-2-phenylethyl)-5-methyl-6-[(3-oxopiperazin-1-yl)carbonyl]-1-(3,3,3-trifluoropropyl)thieno[2,3-d]pyrimidine-2,4(1H,3H)-dione]
0.14 µM | CCCn1c(=O)c2c(C)c(C(=O)N3CCNC(=O)C3)sc2n(CCC(F)(F)F)c1=O [Example 95, 5-Methyl-6-[(3-oxopiperazin-1-yl)carbonyl]-3-propyl-1-(3,3,3-trifluoropropyl)thieno [2,3-d]pyrimidine-2,4(1H,3H)-dione]
0.007 µM | O=C1CN(C(=O)c2sc3c(c2C(F)F)c(=O)n(CCc2ccccc2)c(=O)n3CCC(F)(F)F)CCN1 [Example 97, 5-(Difluoromethyl)-6-[(3-oxopiperazin-1-yl)carbonyl]-3-(2-phenylethyl)-1-(3,3,3-trifluoropropyl)thieno[2,3-d]pyrimidine-2,4(1H,3H)-dione]
0.01 µM | Cc1c(C(=O)N2CCC(O)CC2)sc2c1c(=O)n(CCc1ccccc1)c(=O)n2CCOC(F)(F)F [Example 99, 6-[(4-Hydroxypiperidin-1-yl)carbonyl]-5-methyl-3-(2-phenylethyl)-1-[2-(trifluoromethoxy)ethyl]thieno[2,3-d]pyrimidine-2,4(1H,3H)-dione]
0.019 µM | Cc1c(C(=O)N2CCC(O)CC2)sc2c1c(=O)n(CCC=C(F)F)c(=O)n2CCC(F)(F)F [Example 106, 3-(4,4-Difluorobut-3-en-1-yl)-6-[(4-hydroxypiperidin-1-yl)carbonyl]-5-methyl-1-(3,3,3-trifluoropropyl)thieno [2,3-d]pyrimidine-2,4(1H,3H)-dione]
0.014 µM | Cc1c(C(=O)N2CCC(O)(CO)CC2)sc2c1c(=O)n(CCc1ccccc1)c(=O)n2CCOC(F)(F)F [Example 110, 6-{[4-Hydroxy-4-(hydroxymethyl)piperidin-1-yl]carbonyl}-5-methyl-3-(2-phenylethyl)-1-[2-(trifluoromethoxy)ethyl]thieno[2,3-d]pyrimidine-2,4(1H,3H)-dione]
0.004 µM | CCn1c(=O)c2c(C)c(C(=O)N3CCC(C)(O)CC3)sc2n(CCOC(F)(F)F)c1=O [Example 111, 3-Ethyl-6-[(4-hydroxy-4-methylpiperidin-1-yl)carbonyl]-5-methyl-1-[2-(trifluoromethoxy)ethyl]thieno[2,3-d]pyrimidine-2,4(1H,3H)-dione]
0.0079 µM | CCn1c(=O)c2c(C)c(C(=O)N3CCC(O)(CC)CC3)sc2n(CCOC(F)(F)F)c1=O [Example 112, 3-Ethyl-6-[(4-ethyl-4-hydroxypiperidin-1-yl)carbonyl]-5-methyl-1-[2-(trifluoromethoxy)ethyl]thieno[2,3-d]pyrimidine-2,4(1H,3H)-dione]
0.07 µM | CCn1c(=O)c2c(C)c(C(=O)N3CCC(O)(CC)CC3)sc2n(CCC(F)(F)F)c1=O [Example 113, 3-Ethyl-6-[(4-ethyl-4-hydroxypiperidin-1-yl)carbonyl]-5-methyl-1-(3,3,3-trifluoropropyl)thieno[2,3-d]pyrimidine-2,4(1H,3H)-dione]
0.032 µM | CCn1c(=O)c2c(C(F)F)c(C(=O)N3CCC(O)CC3)sc2n(CCC(F)(F)F)c1=O [Example 122, 5-(Difluoromethyl)-3-ethyl-6-[(4-hydroxypiperidin-1-yl)carbonyl]-1-(3,3,3-trifluoropropyl)thieno[2,3-d]pyrimidine-2,4(1H,3H)-dione]
0.048 µM | CCn1c(=O)c2c(C(F)F)c(C(=O)N3CCC(O)(CC)CC3)sc2n(CCC(F)(F)F)c1=O [Example 125, 5-(Difluoromethyl)-3-ethyl-6-[(4-ethyl-4-hydroxypiperidin-1-yl)carbonyl]-1-(3,3,3-trifluoropropyl)thieno[2,3-d]pyrimidine-2,4(1H,3H)-dione]
0.084 µM | CCn1c(=O)c2c(C(F)F)c(C(=O)N3CCC(O)(CO)CC3)sc2n(CCC(F)(F)F)c1=O [Example 126]
0.009 µM | CCn1c(=O)c2c(C)c(C(=O)N3CCNC(=O)C3)sc2n(CCOC(F)(F)F)c1=O [Example 130, 3-Ethyl-5-methyl-6-[(3-oxopiperazin-1-yl)carbonyl]-1-[2-(trifluoromethoxy)ethyl]thieno[2,3-d]pyrimidine-2,4(1H,3H)-dione]
0.034 µM | CCn1c(=O)c2c(C(F)F)c(C(=O)N3CCNC(=O)C3)sc2n(CCC(F)(F)F)c1=O [Example 131, 5-(Difluoromethyl)-3-ethyl-6-[(3-oxopiperazin-1-yl)carbonyl]-1-(3,3,3-trifluoropropyl)thieno[2,3-d]pyrimidine-2,4(1H,3H)-dione]
0.36 µM | CCn1c(=O)c2c(C)c(C(=O)N3CCC(O)CC3)sc2n(CCC(C)C)c1=O [Example 134, 3-Ethyl-6-[(4-hydroxypiperidin-1-yl)carbonyl]-5-methyl-1-(3-methylbutyl)thieno[2,3-d]pyrimidine-2,4(1H,3H)-dione]
0.31 µM | CCn1c(=O)c2c(C)c(C(=O)N3CCC(O)CC3)sc2n(CCC(F)=C(F)F)c1=O [Example 136, 3-Ethyl-6-[(4-hydroxypiperidin-1-yl)carbonyl]-5-methyl-1-(3,4,4-trifluorobut-3-en-1-yl)thieno[2,3-d]pyrimidine-2,4(1H,3H)-dione]
